The subject of series [1] is Candida albicans. In words: Antifungal activity against Candida albicans ATCC 90028 assessed as growth inhibition at 2 ug/ml after 48 hrs by broth microdilution method relative to control. The class given is functional. To be noted: ATCC 90028, 48 h, read-out: GI. On the technique in general: Broth dilution looks for growth in wells or tubes with falling amounts of substance.

A short description of series [2]: Antifungal activity against Fusarium oxysporum MF5 assessed as radial growth inhibition at 64 ug/ml after 5 to 7 days relative to control. Type of series: functional.
The subject of series [3] is Candida albicans. Kind of series: Antifungal activity against Candida albicans ATCC 90028 assessed as growth inhibition at 8 ug/ml after 48 hrs by broth microdilution method relative to control. The class given is functional. Particulars: ATCC 90028, 48 h, read-out: GI.
Series [4] deals with Aspergillus niger. Kind of series: Antifungal activity against Aspergillus niger ATCC 16404 assessed as radial growth inhibition at 64 ug/ml after 5 to 7 days relative to control. Type of series: functional. To be noted: read-out: GI.
Series [5] concerns Candida albicans. In words: Antifungal activity against Candida albicans ATCC 90028 assessed as growth inhibition at 1 ug/ml after 48 hrs by broth microdilution method relative to control. Type of series: functional. To be noted: ATCC 90028, 48 h, read-out: GI.
A short description of series [6]: Antifungal activity against Fusarium sambucinum MF1 assessed as radial growth inhibition at 64 ug/ml after 5 to 7 days relative to control. Type of series: functional.
Series [7] has as its system Candida albicans. Kind of series: Antifungal activity against Candida albicans ATCC 90028 assessed as growth inhibition at 0.125 ug/ml after 48 hrs by broth microdilution method relative to control. The class given is functional. To be noted: ATCC 90028, 48 h, read-out: GI.
Series [8] is described as follows: Antifungal activity against Colletotrichum coccodes MC1 assessed as radial growth inhibition at 64 ug/ml after 5 to 7 days relative to control. Type of series: functional.
Series [9] relates to Candida albicans. Kind of series: Antifungal activity against Candida albicans ATCC 90028 assessed as growth inhibition at 0.5 ug/ml after 48 hrs by broth microdilution method relative to control. Type of series: functional. Particulars: ATCC 90028, 48 h, read-out: GI.
Series [10] relates to Candida albicans. In words: Antifungal activity against Candida albicans ATCC 90028 assessed as growth inhibition at 0.0313 ug/ml after 48 hrs by broth microdilution method relative to control. Type of series: functional. Particulars: ATCC 90028, 48 h, read-out: GI.
Series [11] relates to Candida albicans. Kind of series: Antifungal activity against Candida albicans ATCC 90028 assessed as growth inhibition at 4 ug/ml after 48 hrs by broth microdilution method relative to control. The class given is functional. Particulars: ATCC 90028, 48 h, read-out: GI.
Series [12] concerns Candida albicans. In words: Antifungal activity against Candida albicans ATCC 90028 assessed as growth inhibition at 0.25 ug/ml after 48 hrs by broth microdilution method relative to control. To be noted: ATCC 90028, 48 h, read-out: GI. Type of series: functional.
Series [13] has as its system Candida albicans. Kind of series: Antifungal activity against Candida albicans ATCC 90028 assessed as growth inhibition at 16 ug/ml after 48 hrs by broth microdilution method relative to control. The class given is functional. To be noted: ATCC 90028, 48 h, read-out: GI.
Series [14] concerns Candida albicans. In words: Antifungal activity against Candida albicans ATCC 90028 assessed as growth inhibition at 0.0625 ug/ml after 48 hrs by broth microdilution method relative to control. To be noted: ATCC 90028, 48 h, read-out: GI. The class given is functional.
The nature of series [15]: Toxicity in last instar larval stage of Galleria mellonella assessed as decrease in survival at 0.33% after 96 hrs.

Consider `O=S(=O)(CCn1nnc(-c2ccc(Cl)cc2)n1)c1ccccc1`, for which the inhibition of growth at 2 µg/mL in series [1] was determined as 99.4%. Also, the growth inhibition (GI) in [2] was 1.7%; in [6], 1.8%; in series [8] it was 18.4%. Moreover, in [3], the inhibition of growth at 8 µg/mL was 99.5%. The inhibition of growth at 64 µg/mL in series [4] amounted to 11.2%. In [5], the inhibition of growth at 1 µg/mL was found to be 99.4%. The inhibition of growth at 0.125 µg/mL in series [7] came out at 99.3%. The inhibition of growth at 0.5 µg/mL in series [9] amounted to 99.4%. In addition, the inhibition of growth at 0.0313 µg/mL in series [10] came out at 99%. Also, the inhibition of growth at 4 µg/mL in series [11] stood at 99.4%. The inhibition of growth at 0.25 µg/mL in series [12] was 99.3%.
As for `O=S(=O)(CCn1nnc(-c2ccccc2Cl)n1)c1ccccc1`, in series [1], the inhibition of growth at 2 µg/mL is 97.9%. In addition, the growth inhibition (GI) stood at 31.2% in series [2], 35.6% in series [6] and 43.4% in series [8]. In addition, the inhibition of growth at 16 µg/mL in [13] was 98.5%. Also, the inhibition of growth at 8 µg/mL in [3] was 98%. Besides, the inhibition of growth at 64 µg/mL in series [4] turned out to be 17.1%. The inhibition of growth at 0.0625 µg/mL in series [14] was 98.4%. The inhibition of growth at 1 µg/mL in series [5] came to 98.2%. The inhibition of growth at 0.125 µg/mL in [7] was found to be 97.8%. Moreover, the inhibition of growth at 0.5 µg/mL in [9] came to 98.2%. Further, the inhibition of growth at 0.0313 µg/mL in series [10] was determined as 98.6%. Besides, in series [11], the inhibition of growth at 4 µg/mL came to 97.8%. Moreover, the inhibition of growth at 0.25 µg/mL in series [12] was 98.1%.
On to `C[S+](C)[O-]` [DIMETHYL SULFOXIDE], for which, in series [15], the Activity entry was “Non-Toxic”.
Take `Cc1ccc(-c2nnn(CCCSc3nc4ccccc4s3)n2)cc1`: the inhibition of growth at 2 µg/mL in series [1] worked out at 98.6%. Also, the growth inhibition (GI) worked out at 0% in [2], 0% in series [6] and 33.4% in [8]. Also, in [13], the inhibition of growth at 16 µg/mL is 98.8%. Besides, the inhibition of growth at 8 µg/mL in series [3] was 99%. For the same compound, in series [4], the inhibition of growth at 64 µg/mL is 3%. The inhibition of growth at 0.0625 µg/mL in [14] amounted to 98.8%. Further, the inhibition of growth at 1 µg/mL in [5] is 98.9%. Also, the inhibition of growth at 0.125 µg/mL in series [7] worked out at 98.8%. Besides, the inhibition of growth at 0.5 µg/mL in [9] is 98.7%. For the same compound, the inhibition of growth at 0.0313 µg/mL in series [10] was 98.8%. Further, the inhibition of growth at 4 µg/mL in series [11] was found to be 98.9%. In addition, the inhibition of growth at 0.25 µg/mL in [12] was 98.6%.
Take `c1ccc(-c2nnn(CCCSc3nc4ccccc4s3)n2)cc1`: the growth inhibition (GI) came out at 0% in series [2], 13% in series [6] and 23.4% in series [8]. For the same compound, the inhibition of growth at 64 µg/mL in series [4] amounted to 4.4%.
In the same order, the values of `Clc1ccc(-c2nnn(CCCSc3nc4ccccc4s3)n2)cc1` are 0%, 5%, 36.7% and 0%.

The record behind these values is ChEMBL document CHEMBL3856287, “Synthesis of novel tetrazole derivatives and evaluation of their antifungal activity” (Bioorg Med Chem, 2016).
